Results taken from paper PMC12051620, “Molecular basis underlying the specificity of an antagonist AA92593 for mammalian melanopsins” (The Journal of Biological Chemistry, 2025).

Target: T1, mouse melanopsin (Mus musculus, UniProt Q9QXZ9)
T1 construct: the C-terminal amino acid residues (94, 140, 200, 214, 296, and 308 residues); expressed in transfected cells; host or cells: COS-1
Experiment: GsX GloSensor assay with Gsα/i11
Assay type: cell-based
Settings: 16.7 μM AA92593; COS-1 cells
From the text: Previous studies of human and mouse melanopsins reported that these melanopsins can activate not only Gq but Gs and Gi ([20], [21], [22]). Thus, we assessed the effect of AA92593 on Gsα WT or Gsα/i11 (with 11 C-terminal sequence of Giα) using the GsX GloSensor assay. In agreement with the promiscuous G protein-coupling of melanopsins, we observed light-dependent increase of GloSensor luminescence in COS-1 cells expressing Gsα or Gsα/i11 with human/mouse melanopsins (Fig. 1, G–J).
For GloSensor assay, opsins, GloSensor assay sensor (coded by pGlo-22F), and NanoBiT-tagged G proteins were transiently expressed in COS-1 cells (kindly provided from Dr David Farrens, Oregon Health and Science University) using PEI as described previously ([24], [52]). […] For GFP-fluorescence microscopy, a 35-mm cell culture dish (IWAKI) was transfected with 2 μg melanopsin-GFP plasmid and 8 μg PEI in 400 μl Opti-mem and 1.2 ml D-MEM. […]
The transfected COS-1 cells were incubated at 37 °C, 5% CO2 for 2 days, and the medium was aspirated and exchanged with 50 μl of HBSS (145 mM NaCl, 10 mM D-glucose, 5 mM KCl, 1 mM MgCl2, 1.7 mM CaCl2, 1.5 mM NaHCO3, 10 mM Hepes, pH 7.4), containing 33.3, 20, 10, 2, 0.2, 0.02, 0.002, or 0 μM AA92593, 0.5% dimetyl sulfoxide (DMSO), and 4% (vol/vol) GloSensor cAMP reagent stock solution. […] Luminescence was measured using GM-2000 or GM-3510 microplate reader (Promega). […]

T1 sequence (Q9QXZ9 1-381 limits assumed): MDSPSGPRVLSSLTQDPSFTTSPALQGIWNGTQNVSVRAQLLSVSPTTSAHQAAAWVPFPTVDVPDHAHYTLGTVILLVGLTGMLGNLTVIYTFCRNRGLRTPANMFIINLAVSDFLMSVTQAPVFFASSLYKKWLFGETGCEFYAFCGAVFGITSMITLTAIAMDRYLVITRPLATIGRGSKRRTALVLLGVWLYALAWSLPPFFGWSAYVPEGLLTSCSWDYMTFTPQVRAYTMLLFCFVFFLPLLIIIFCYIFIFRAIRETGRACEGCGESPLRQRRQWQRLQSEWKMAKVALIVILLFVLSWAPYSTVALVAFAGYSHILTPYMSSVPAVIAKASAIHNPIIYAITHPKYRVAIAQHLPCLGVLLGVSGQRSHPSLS

SMILES: COc1ccc(S(=O)(=O)N2CCCCC2)cc1C [AA92593]
- effect on melanopsin-induced cAMP responses via Gsα/i11: can suppress
